The results in this text go back to patent US20060148838A1, “Novel pyrrolodihydroisoquinolines useful in the treatment of cancer” (Altana Pharma AG, priority 2003, published 2006).

Series [1] relates to NCl-H460 non-small cell lung cancer cells. Description: Alamar Blue cell viability assay, anti-proliferative/cytotoxic activity. The following applies: 72 hours incubation, one range stated for all listed Examples, read-out: −log IC50 NCl-H460 (converted). It counts as cell-based. The method, then:
The anti-proliferative/cytotoxic activity of the compounds described herein, can be tested on NCl-H460 non-small cell lung cancer cells using the Alamar Blue cell viability assay (described in O'Brien et al. Eur J Biochem 267, 5421-5426, 2000). The compounds are dissolved as 20 mM solutions in dimethylsulfoxide (DMSO) and subsequently diluted in semi-logarithmic steps. DMSO dilutions are further diluted 1:100 into Dulbecco's modified Eagle's medium (DMEM) containing 10% fetal calf serum to a final concentration twice as much as the final concentration in the test. NCl-460 cells are seeded into 96 well flat bottom plates at a density of 4000 cells per well in a volume of 50 μl per well. 24 hours after seeding the 50 μl each of the compound dilutions in DMEM medium are added into each well of the 96 Well plate. Each compound dilution is tested as quadruplicates. Wells containing untreated control cells are filled with 50 μl DMEM medium containing 1% DMSO. The cells are then incubated with the substances for 72 hours at 37° C. In a humified atmosphere containing 5% carbon dioxide. To determine the viability of the cells, 10 μl of an Alamar Blue solution (Biosource) are added and the fluorescence is measured at an extinction of 544 nm and an emission of 590 nm. For the calculation of cell viability the emission value from untreated cells is set to 100% viability and the emission rates of treated cells are set in relation to the values of untreated cells. Viabilities are expressed as % values.
The corresponding IC50 values of the compounds for anti-proliferative/cytotoxic activity are determined from the concentration-effect curves.
Representative advantageous IC50 values for anti-proliferation/cytotoxicity determined for the compounds mentioned and numbered as Examples in the examples above follow from the following table A, in which the numbers of the compound correspond to the numbers of the examples.
(Alamar Blue is a resazurin reagent that responds to reducing activity.)

For the compound `CCOC(=O)c1c(-c2cc(C)c(O)c(C)c2)c(C)n2c1-c1cc(OC)c(OC)cc1C(C)C2` (racemic) [Example 2, (6RS)-2-(4-Hydroxy-3,5-dimethyl-phenyl)-8,9-dimethoxy-3,6-dimethyl-5,6-dihydro-pyrrolo[2,1-a]isoquinoline-1-carboxylic acid ethyl ester], the IC50 in series [1] is 0.398 to 3.16 µM.
Compound `CCOC(=O)c1c(-c2cc(C)c(O)c(C)c2)c(C)n2c1-c1cc(OC)c(OC)cc1C(C)(C)C2` [Example 1, 2-(4-hydroxy-3,5-dimethyl-phenyl)-8,9-dimethoxy-3,6,6-trimethyl-5,6-dihydro-pyrrolo[2,1-a]isoquinoline-1-carboxylic acid ethyl ester] gave a melting point of 200 to 202 °C. Further, the IC50 in series [1] is 0.398 to 3.16 µM.
For `CCOC(=O)c1c(-c2cccc(N(C)C)c2)c(C)n2c1-c1cc(OC(F)F)c(OC)cc1CC2` [Example 4, 9-(1,1-Difluoro-methoxy)-2-(3-dimethylamino-phenyl)-8-methoxy-3-methyl-5,6-dihydro-pyrrolo[2,1-a]isoquinoline-1-carboxylic acid ethyl ester] the same measures were 107 to 110 °C and 0.398 to 3.16 µM.
`CCOC(=O)c1c(-c2cc(C)c(O)c(C)c2)c(C)n2c1-c1cc(OC(F)F)c(OC)cc1CC2` [Example 5, 9-(1,1-Difluoro-methoxy)-2-(4-hydroxy-3,5-dimethyl-phenyl)-8-methoxy-3-methyl-5,6-dihydro-pyrrolo[2,1-a]isoquinoline-1-carboxylic acid ethyl ester] came in with a melting point of 152 to 155 °C. For the same compound, in series [1], the IC50 is 0.398 to 3.16 µM.
On to `CCOC(=O)c1c(-c2cc(C)c(O)c(C)c2)c(C)n2c1-c1c(cc(OC)c(OC)c1OC)CC2` [Example 7, 2-(4-Hydroxy-3,5-dimethyl-phenyl)-8,9,10-trimethoxy-3-methyl-5,6-dihydro-pyrrolo[2,1-a]isoquinoline-1-carboxylic acid ethyl ester], for which the melting point was in the range of 246 to 251 °C.
Same read-out and setting: with `CCOC(=O)c1c(-c2cc(OC)c(OC)c(OC)c2)c(C)n2c1-c1cc(OC)c(OC(F)F)cc1CC2` [Example 8, 8-(1,1-Difluoro-methoxy)-9-methoxy-3-methyl-2-(3,4,5-trimethoxy-phenyl)-5,6-dihydro-pyrrolo[2,1-a]isoquinoline-1-carboxylic acid ethyl ester] the figure was 155 °C.
`CCOC(=O)c1c(-c2cc(C)c(O)c(C)c2)c(C)n2c1-c1cc(OC)c(OC(F)F)cc1CC2` [Example 9, 8-(1,1-Difluoro-methoxy)-2-(4-hydroxy-3,5-dimethyl-phenyl)-9-methoxy-3-methyl-5,6-dihydro-pyrrolo[2,1-a]isoquinoline-1-carboxylic acid ethyl ester] registered a melting point of 126 to 128 °C. Further, the IC50 in series [1] was 0.398 to 3.16 µM.
As for `CCOC(=O)c1c(-c2cccc(N(C)C)c2)c(C)n2c1-c1cc(OC)c(OC(F)F)cc1CC2` [Example 10, 8-(1,1-Difluoro-methoxy)-2-(3-dimethylamino-phenyl)-9-methoxy-3-methyl-5,6-dihydro-pyrrolo[2,1-a]isoquinoline-1-carboxylic acid ethyl ester], the IC50 in series [1] was 0.398 to 3.16 µM.
For the compound `CCOC(=O)c1c(-c2cc(OC)c(OC)c(OC)c2)c(C)n2c1-c1cc(Cl)c(OC)cc1CC2` [Example 15, 9-Chloro-8-methoxy-3-methyl-2-(3,4,5-trimethoxy-phenyl)-5,6-dihydro-pyrrolo[2,1-a]isoquinoline-1-carboxylic acid ethyl ester], the melting point lay in the range of 172 to 174 °C.
Consider `CCOC(=O)c1c(-c2cccc(N(C)C)c2)c(C)n2c1-c1cc(Cl)c(OC)cc1CC2` [Example 16, 9-Chloro-2-(3-dimethylamino-phenyl)-8-methoxy-3-methyl-5,6-dihydro-pyrrolo[2,1-a]isoquinoline-1-carboxylic acid ethyl ester], for which, in series [1], the IC50 is 0.398 to 3.16 µM.
`CCOC(=O)c1c(-c2cc(C)c(O)c(C)c2)c(C)n2c1-c1cc(OC)c(Cl)cc1CC2` [Example 17, 8-Chloro-2-(4-hydroxy-3,5-dimethyl-phenyl)-9-methoxy-3-methyl-5,6-dihydro-pyrrolo[2,1-a]isoquinoline-1-carboxylic acid ethyl ester] registered a melting point of 167 to 169 °C.
For the compound `CCOC(=O)c1c(-c2cc(C)c(O)c(C)c2)c(C)n2c1-c1cc(OC)c(OCCOC)cc1CC2` [Example 18, 2-(4-Hydroxy-3,5-dimethyl-phenyl)-9-methoxy-8-(2-methoxy-ethoxy)-3-methyl-5,6-dihydro-pyrrolo[2,1-a]isoquinoline-1-carboxylic acid ethyl ester], the melting point was 169 to 171 °C. Moreover, the IC50 in series [1] was 0.398 to 3.16 µM.
`CCOC(=O)c1c(-c2cc(OC)c(OC)c(OC)c2)c(C)n2c1-c1cc(OC)c(OCCOC)cc1CC2` [Example 19, 9-Methoxy-8-(2-methoxy-ethoxy)-3-methyl-2-(3,4,5-trimethoxy-phenyl)-5,6-dihydro-pyrrolo[2,1-a]isoquinoline-1-carboxylic acid ethyl ester] came in with a melting point of 152 to 154 °C.
`CCOC(=O)c1c(-c2cccc3ccccc23)c(C)n2c1-c1cc(OC)c(OCCOC)cc1CC2` [Example 20, 9-Methoxy-8-(2-methoxy-ethoxy)-3-methyl-2-naphthalen-1-yl-5,6-dihydro-pyrrolo[2,1-a]isoquinoline-1-carboxylic acid ethyl ester] returned a melting point of 126 to 128 °C. For the same compound, in series [1], the IC50 was 0.398 to 3.16 µM.
As to `CCOC(=O)c1c(-c2cc(C)c(O)c(C)c2)c(C)n2c1-c1cc(F)c(OC)cc1CC2` [Example 21, 9-Fluoro-2-(4-hydroxy-3,5-dimethyl-phenyl)-8-methoxy-3-methyl-5,6-dihydro-pyrrolo[2,1-a]isoquinoline-1-carboxylic acid ethyl ester], the IC50 in series [1] is 0.398 to 3.16 µM.
Consider `CCOC(=O)c1c(-c2cc(C)c(O)c(C)c2)c(C)n2c1-c1cc(C)c(OC)cc1CC2` [Example 23, 2-(4-Hydroxy-3,5-dimethyl-phenyl)-8-methoxy-3,9-dimethyl-5,6-dihydro-pyrrolo[2,1-a]isoquinoline-1-carboxylic acid ethyl ester], for which the melting point was in the range of 179 to 181 °C.
Still for that read-out and setting: with `COc1cc2c(cc1OC)-c1c(C(=O)c3ccccc3)c(-c3cc(C)c(O)c(C)c3)c(C)n1CC2` [Example 26, 1-[2-(4-hydroxy-3,5-dimethyl-phenyl)-8,9-dimethoxy-3-methyl-5,6-dihydro-pyrrolo[2,1-a]isoquinolin-1-yl]-1-phenyl-methanone] the figure was 194 to 196 °C; with `COc1cc2c(cc1OC)-c1c(-c3ccccc3)c(-c3cc(C)c(O)c(C)c3)c(C)n1CC2` [Example 27, 4-(8,9-Dimethoxy-3-methyl-1-phenyl-5,6-dihydro-pyrrolo[2,1-a]isoquinolin-2-yl)-2,6-dimethyl-phenol], 210 to 214 °C.
`COc1cc2c(cc1OC)-c1c(C(=O)NC(C)C)c(-c3cc(C)c(O)c(C)c3)c(C)n1CC2` [Example 30, 2-(4-Hydroxy-3,5-dimethyl-phenyl)-8,9-dimethoxy-3-methyl-5,6-dihydro-pyrrolo[2,1-a]isoquinoline-1-carboxylic acid isopropylamide]: in series [1], the IC50 was 0.398 to 3.16 µM.
On to `COc1cc2c(cc1OC)-c1c(C(=O)N(C)C)c(-c3cc(C)c(O)c(C)c3)c(C)n1CC2` [Example 31, 2-(4-Hydroxy-3,5-dimethyl-phenyl)-8,9-dimethoxy-3-methyl-5,6-dihydro-pyrrolo[2,1-a]isoquinoline-1-carboxylic acid dimethylamide], for which the melting point is 259 to 261 °C.
`CNC(=O)c1c(-c2cc(C)c(O)c(C)c2)c(C)n2c1-c1cc(OC)c(OC)cc1CC2` [Example 32, 2-(4-Hydroxy-3,5-dimethyl-phenyl)-8,9-dimethoxy-3-methyl-5,6-dihydro-pyrrolo[2,1-a]isoquinoline-1-carboxylic acid methylamide] showed a melting point of 281 to 283 °C.
Still for that read-out and setting: with `COc1cc2c(cc1OC)-c1c(C(N)=O)c(-c3cc(C)c(O)c(C)c3)c(C)n1CC2` [Example 33, 2-(4-Hydroxy-3,5-dimethyl-phenyl)-8,9-dimethoxy-3-methyl-5,6-dihydro-pyrrolo[2,1-a]isoquinoline-1-carboxylic acid amide] the figure was 229 to 231 °C; with `CCNC(=O)c1c(-c2cc(C)c(O)c(C)c2)c(C)n2c1-c1cc(OC)c(OC)cc1CC2` [Example 35, 2-(4-Hydroxy-3,5-dimethyl-phenyl)-8,9-dimethoxy-3-methyl-5,6-dihydro-pyrrolo[2,1-a]isoquinoline-1-carboxylic acid ethylamide], 242 to 244 °C; with `COc1cc2c(cc1OC)-c1c(C(=O)NC3CC3)c(-c3cc(C)c(O)c(C)c3)c(C)n1CC2` [Example 37, 2-(4-Hydroxy-3,5-dimethyl-phenyl)-8,9-dimethoxy-3-methyl-5,6-dihydro-pyrrolo[2,1-a]isoquinoline-1-carboxylic acid cyclopropylamide], 254 to 256 °C.

A word on the IC50: it is the midpoint of a concentration-inhibition curve. Usually melting point stands for the temperature of the solid-liquid transition.
